Our source for the IC50 values is the supplement of paper PMC7695840.

Structures are written as SMILES. pIC50: −log10 of the molar value. Several values for one entry are separate records, joined by “and”; a condition that tells them apart may be missing. Equal entries are not always repeated. Structures can show the parent of a compound that is named as a salt. Bounds are passed on as bounds.

Assay [1] concerns Staphylococcus aureus MW2 delta-mecA (mecA-). Description: IC50 (growth, competition assay). Conditions: cefoxitin: subinhibitory. The method, boiled down:
(§1)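 Two fluorescent S. aureus MW2 strains, one carrying and one lacking the resistance gene, were pre-induced, mixed 1:1 and grown unshaken in LB in 1536-well plates for 20 h at 37 °C and 90% humidity with a subinhibitory drug dose set each day. Compounds were tested on five- or nine-point 2-fold gradients in two dye-swapped replicates. DsRed (540/590) and GFP (485/520) signals were scaled per plate between the medians of single-strain controls, and No Treatment was then set to 0.5. For each strain, IC50 was taken as the dose that halved the No Treatment signal, or else the maximal signal.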

For assay [2], the system named is Staphylococcus aureus MW2 (mecA+). Description: IC50 (growth, competition assay). Conditions: cefoxitin: subinhibitory. The method, boiled down: as §1

As to `Cc1onc(-c2ccccc2Cl)c1C(=O)N[C@@H]1C(=O)N2[C@@H]1SC(C)(C)[C@@H]2C(=O)O` [Cloxacillin sodium], the pIC50 in assay [1] (fluorescent label: DsRed), in assay [1] (fluorescent label: GFP), in assay [2] (fluorescent label: DsRed) and in assay [2] (fluorescent label: GFP) was greater than 5.01 each time.
Regarding `O=S1(=O)N(CCN2CC=C(c3c[nH]c4cc(F)ccc34)CC2)c2cccc3c2N1CCC3` [LY-367,265], the pIC50 (in general, the negative decadic logarithm of the IC50, by convention in mol/L) in assay [1] (fluorescent label: DsRed) is greater than 5.01; in assay [1] (fluorescent label: GFP), 4.88; in assay [2] (fluorescent label: DsRed) it was 4.41; in assay [2] (fluorescent label: GFP), 4.35.
In the case of `CCN(CC)CCOc1ccc(C(=C(Cl)c2ccccc2)c2ccccc2)cc1` [Clomifene citrate (Serophene)], the pIC50 in assay [1] (fluorescent label: DsRed) was greater than 5.01; in assay [1] (fluorescent label: GFP), greater than 5.01; in assay [2] (fluorescent label: DsRed) it was 4.82; in assay [2] (fluorescent label: GFP), 4.83.
For `Oc1c(I)cc(I)c2cccnc12` [IOQUIN], the pIC50 was greater than 5.01 in assay [1] (fluorescent label: DsRed), greater than 5.01 in assay [1] (fluorescent label: GFP), 4.68 in assay [2] (fluorescent label: DsRed) and 4.75 in assay [2] (fluorescent label: GFP).
For the compound `C=C1/C(=C\C=C2/CCC[C@]3(C)[C@@H]([C@H](C)CCCC(C)C)CC[C@@H]23)C[C@@H](O)C[C@@H]1O` [Alfacalcidol], the pIC50 in assay [1] (fluorescent label: DsRed), in assay [1] (fluorescent label: GFP), in assay [2] (fluorescent label: DsRed) and in assay [2] (fluorescent label: GFP) was less than 3.82 each time.
Regarding `Cc1c(-c2ccc(O)cc2)n(Cc2ccc(OCCN3CCCCCC3)cc2)c2ccc(O)cc12` [Bazedoxifene HCl], the pIC50 in assay [1] (fluorescent label: DsRed) is 4.87; in assay [1] (fluorescent label: GFP), 4.55; in assay [2] (fluorescent label: DsRed), 4.25; in assay [2] (fluorescent label: GFP), 4.25.
With `CC(=O)OCC1=C(C(=O)O)N2C(=O)[C@@H](NC(=O)Cc3cccs3)[C@H]2SC1` [Cephalothin sodium], the pIC50 in assay [1] (fluorescent label: DsRed), in assay [1] (fluorescent label: GFP), in assay [2] (fluorescent label: DsRed) and in assay [2] (fluorescent label: GFP) was greater than 5.01 in each case.
As for `COC(=O)/C(C)=C\C[C@@]12OC(C)(C)[C@@H]3C[C@@H](C=C4C(=O)c5c(O)c6c(c(CC=C(C)C)c5O[C@]431)O[C@](C)(CCC=C(C)C)C=C6)C2=O` [METHYL GAMBOGATE], the pIC50 in assay [1] (fluorescent label: DsRed) was 4.89; in assay [1] (fluorescent label: GFP), 4.64; in assay [2] (fluorescent label: DsRed) it was 4.25; in assay [2] (fluorescent label: GFP) it was 4.18.
The like results for `COc1cc(C)c(C(=O)Oc2cc(C)c(C(=O)O)c(O)c2C)c(OC)c1C` [DIFFRACTAIC ACID] were, in that order, 4.89, 4.80, 4.51 and 4.56.
As for `O=[N+]([O-])c1ccc2c(c1)S(=O)(=O)C=C2` [Stattic], the pIC50 is 4.59 and 4.78 in assay [1] (fluorescent label: DsRed); 4.87 and > 5.01 in assay [1] (fluorescent label: GFP); 4.45 in assay [2] (fluorescent label: DsRed); 4.45 and 4.25 in assay [2] (fluorescent label: GFP).
Take `CCOC(=O)C1=C(C)NC(C)=C(C(=O)OC)C1c1cccc(Cl)c1Cl` (stereo unspecified) [Felodipine]: the pIC50 in assay [1] (fluorescent label: DsRed) is greater than 5.01; in assay [1] (fluorescent label: GFP), greater than 5.01; in assay [2] (fluorescent label: DsRed), 4.56; in assay [2] (fluorescent label: GFP), 4.49.
With `CCCCCCCCCCCCCCCC(=O)OC[C@H](O)[C@H]1OC(=O)C(O)=C1O` [EMPROVE], the pIC50 in assay [1] (fluorescent label: DsRed) is greater than 5.01; in assay [1] (fluorescent label: GFP), greater than 5.01; in assay [2] (fluorescent label: DsRed), 4.28; in assay [2] (fluorescent label: GFP), 4.06.
As for `N[C@@H]1CONC1=O` [SEROMYCIN], the pIC50 in assay [1] (fluorescent label: DsRed) was 4.01; in assay [1] (fluorescent label: GFP) it was 4.04; in assay [2] (fluorescent label: DsRed) it was less than 3.82; in assay [2] (fluorescent label: GFP), 3.96.
In the case of `CO[C@H]1/C=C/O[C@@]2(C)Oc3c(C)c(O)c4c(O)c(c5c(nc6cc(C)ccn65)c4c3C2=O)NC(=O)/C(C)=C\C=C\[C@H](C)[C@H](O)[C@@H](C)[C@@H](O)[C@@H](C)[C@H](OC(C)=O)[C@@H]1C` [Rifaximin (Xifaxan)], the pIC50 in assay [1] (fluorescent label: DsRed), in assay [1] (fluorescent label: GFP), in assay [2] (fluorescent label: DsRed) and in assay [2] (fluorescent label: GFP) was greater than 6.30 in each case.
Take `COC1=CC(=O)C(O)=C/C1=C\C=C\c1ccccc1` [OBTUSAQUINONE]: the pIC50 in assay [1] (fluorescent label: DsRed), in assay [1] (fluorescent label: GFP), in assay [2] (fluorescent label: DsRed) and in assay [2] (fluorescent label: GFP) was greater than 5.01 in each case.
For the compound `Oc1ccc(Cl)cc1Cc1cc(Cl)ccc1O` [DICHLOROPHEN], the pIC50 in assay [1] (fluorescent label: DsRed), in assay [1] (fluorescent label: GFP), in assay [2] (fluorescent label: DsRed) and in assay [2] (fluorescent label: GFP) was greater than 5.01 throughout.
With `CO[C@@]12[C@H](COC(N)=O)C3=C(C(=O)C(C)=C(N)C3=O)N1C[C@@H]1N[C@@H]12` [MUTAMYCIN], the pIC50 in assay [1] (fluorescent label: DsRed), in assay [1] (fluorescent label: GFP), in assay [2] (fluorescent label: DsRed) and in assay [2] (fluorescent label: GFP) was greater than 5.01 throughout.
As to `CO[C@H]1C[C@H](O[C@H]2[C@H](C)[C@@H](O[C@@H]3O[C@H](C)C[C@H](N(C)C)[C@H]3OC(C)=O)[C@@H](C)C[C@@]3(CO3)C(=O)[C@H](C)[C@@H](OC(C)=O)[C@@H](C)[C@@H](C)OC(=O)[C@@H]2C)O[C@@H](C)[C@@H]1OC(C)=O` [EVRAMYCIN], the pIC50 in assay [1] (fluorescent label: DsRed) was greater than 5.01; in assay [1] (fluorescent label: GFP) it was greater than 5.01; in assay [2] (fluorescent label: DsRed), 4.47; in assay [2] (fluorescent label: GFP), 4.56.
As for `CC(=O)NC[C@H]1CN(c2ccc(N3CCOCC3)c(F)c2)C(=O)O1` [ZYVOX], the pIC50 in assay [1] (fluorescent label: DsRed), in assay [1] (fluorescent label: GFP), in assay [2] (fluorescent label: DsRed) and in assay [2] (fluorescent label: GFP) was greater than 5.01 throughout.
Take `CCCCC[C@H](CC(=O)NO)C(=O)N[C@H](C(=O)N1CCC[C@H]1CO)C(C)C` [Actinonin]: the negative logarithm of the IC50 (pIC50) is greater than 5.01 in assay [1] (fluorescent label: DsRed), greater than 5.01 in assay [1] (fluorescent label: GFP), 4.81 in assay [2] (fluorescent label: DsRed) and 4.96 in assay [2] (fluorescent label: GFP).
With `CC(=O)Oc1ccccc1C(=O)Nc1ncc([N+](=O)[O-])s1` [Nitazoxanide (Alinia, Annita)], the pIC50 in assay [1] (fluorescent label: DsRed) was 4.66; in assay [1] (fluorescent label: GFP), 4.60; in assay [2] (fluorescent label: DsRed) it was 4.26; in assay [2] (fluorescent label: GFP), 4.24.
The like results for `O=C(/C=C/c1ccc(O)c(O)c1)c1ccc(O)cc1O` [Butein] were, in that order, 4.67, 4.52, 4.03 and 4.01.
As for `O=C(/C=C/c1ccccc1)c1ccc(O)cc1` [4'-HYDROXYCHALCONE], the pIC50 was 4.71 in assay [1] (fluorescent label: DsRed), 4.71 in assay [1] (fluorescent label: GFP), 4.11 in assay [2] (fluorescent label: DsRed) and 4.00 in assay [2] (fluorescent label: GFP).
`CC1=C(O)C(=O)C=C2C1=CC=C1[C@@]2(C)CC[C@@]2(C)[C@@H]3C[C@](C)(C(=O)O)CC[C@]3(C)CC[C@]12C` [CELASTROL]: the pIC50 in assay [1] (fluorescent label: DsRed), in assay [1] (fluorescent label: GFP), in assay [2] (fluorescent label: DsRed) and in assay [2] (fluorescent label: GFP) was greater than 5.01 in each case.
